ChEMBL document CHEMBL1155038, “Discovery of phosphonic diamide prodrugs and their use for the oral delivery of a series of fructose 1,6-bisphosphatase inhibitors” (J Med Chem, 2008)

Columns and labels:
Rattus norvegicus [1] = assay: Bioavailability in fasted Sprague-Dawley rat assessed as urinary excretion of phosphoric acid at 10 to 50 mg/kg, po after 24 hrs by HPLC relative to iv dosed phosphoric acid; type: ADME, organism-based, Urine; details: in vivo
Rattus norvegicus [2] = assay: Reduction in blood glucose level in fasted Sprague-Dawley rat at 30 mg/kg, po relative to control; type: functional; design: scale not given: the % may be the effect or the level left
Rattus norvegicus [3] = assay: Reduction in blood glucose level in Sprague-Dawley rat assessed as time of maximum glucose lowering at 30 mg/kg, po; type: functional
Hepatocyte = assay: Drug uptake in cryopreserved human hepatocytes per million cells at 100 uM after 60 mins; type: ADME, cell-based; details: 1 h
[4] = Stability in human liver S9 fractions assessed as prodrug conversion per mg of protein; type: ADME, subcellular, S9 fraction
Rattus norvegicus [5] = assay: Reduction in blood glucose level in fasted Sprague-Dawley rat at <=10 mg/kg, iv relative to control; type: functional; design: scale not given: the % may be the effect or the level left

SMILES	F (Rattus norvegicus [1]) [%]	other results
CC(C)Cc1sc(N)nc1-c1ccc(P(=O)(NCC(=O)OCc2ccccc2)NCC(=O)OCc2ccccc2)o1	17	
CCCSc1sc(N)nc1-c1ccc(P(=O)(N[C@@H](C)C(=O)OCC)N[C@@H](C)C(=O)OCC)o1	17	
CCOC(=O)c1sc(N)nc1-c1ccc(P(=O)(N[C@H](C(=O)OCC)C(C)C)N[C@H](C(=O)OCC)C(C)C)o1	6	
CCOC(=O)c1sc(N)nc1-c1ccc(P(=O)(NC2(C(=O)OCC)CCCC2)NC2(C(=O)OCC)CCCC2)o1	5	
CCOC(=O)[C@H](C)NP(=O)(N[C@@H](C)C(=O)OCC)c1ccc(-c2nc(N)sc2-c2ccccc2)o1	31	
CCCSc1sc(N)nc1-c1ccc(P(=O)(NC2(C(=O)OCC)CCCC2)NC2(C(=O)OCC)CCCC2)o1	49	
CCCSc1sc(N)nc1-c1ccc(P(=O)(N[C@@H](C)C(=O)OC(C)C)N[C@@H](C)C(=O)OC(C)C)o1	17	
CCCOC(=O)[C@H](C)NP(=O)(N[C@@H](C)C(=O)OCCC)c1ccc(-c2nc(N)sc2SCCC)o1	19	
CCOC(=O)c1sc(N)nc1-c1ccc(P(=O)(N[C@@H](CC)C(=O)OCC)N[C@@H](CC)C(=O)OCC)o1	5	
CCC[C@H](NP(=O)(N[C@@H](CCC)C(=O)OCC)c1ccc(-c2nc(N)sc2C(=O)OCC)o1)C(=O)OCC	4	
CC(C)OC(=O)[C@H](C)NP(=O)(N[C@@H](C)C(=O)OC(C)C)c1ccc(-c2nc(N)sc2-c2ccccc2)o1	23	Activity (Rattus norvegicus [2]): 19%; Time (Rattus norvegicus [3]): 5 h
CCCSc1sc(N)nc1-c1ccc(P(=O)(NC2(C(=O)OCC)CCCCC2)NC2(C(=O)OCC)CCCCC2)o1	1	
CCCCOC(=O)[C@H](C)NP(=O)(N[C@@H](C)C(=O)OCCCC)c1ccc(-c2nc(N)sc2SCCC)o1	2	
COC(=O)CNP(=O)(COCCn1cnc2c(N)ncnc21)NCC(=O)OC	2	
CSc1sc(N)nc1-c1ccc(P(=O)(O)O)o1		Activity (Rattus norvegicus [5]): >50%
CCOC(=O)C(C)(C)NP(=O)(COCCn1cnc2c(N)ncnc21)NC(C)(C)C(=O)OCC	4	
CC(C)Cc1sc(N)nc1-c1ccc(P(=O)(N[C@@H](C)C(=O)OCc2ccccc2)N[C@@H](C)C(=O)OCc2ccccc2)o1	11	
CCOC(=O)c1sc(N)nc1-c1ccc(P(=O)(O)O)o1		Activity (Rattus norvegicus [5]): >50%
Nc1nc(-c2ccc(P(=O)(O)O)o2)c(-c2ccccc2)s1		Activity (Rattus norvegicus [5]): >50%
CCOC(=O)[C@H](CSCc1ccccc1)NP(=O)(N[C@@H](CSCc1ccccc1)C(=O)OCC)c1ccc(-c2nc(N)sc2CC(C)C)o1	5	
CCOC(=O)[C@H](Cc1ccccc1)NP(=O)(N[C@@H](Cc1ccccc1)C(=O)OCC)c1ccc(-c2nc(N)sc2CC(C)C)o1	3	
CCCSc1sc(N)nc1-c1ccc(P(=O)(N[C@@H](C)C(=O)OC2CCCCCC2)N[C@@H](C)C(=O)OC2CCCCCC2)o1	12	
CC(C)CNP(=O)(NCC(C)C)c1ccc(-c2nc(N)sc2CC(C)C)o1	0	
CCCSc1sc(N)nc1-c1ccc(P(=O)(O)O)o1		Activity (Rattus norvegicus [5]): >50%
CCCSc1sc(N)nc1-c1ccc(P(=O)(N[C@@H](CCC)C(=O)OCC)N[C@@H](CCC)C(=O)OCC)o1	6	
CCCSc1sc(N)nc1-c1ccc(P(=O)(N[C@H](C(=O)OCC)C(C)C)N[C@H](C(=O)OCC)C(C)C)o1	6	
CCCSc1sc(N)nc1-c1ccc(P(=O)(N[C@@H](CC)C(=O)OCC)N[C@@H](CC)C(=O)OCC)o1	6	

Further lines, with some results ahead:

F (Rattus norvegicus [1]) [%]	SMILES	other results
22	CCOC(=O)[C@H](C)NP(=O)(N[C@@H](C)C(=O)OCC)c1ccc(-c2nc(N)sc2CC(C)C)o1	Activity (Rattus norvegicus [2]): 59%; Time (Rattus norvegicus [3]): 2 h; Drug uptake (Hepatocyte): 7 nmol; Stability [4]: 0.004 nM/min
26	CCOC(=O)CNP(=O)(NCC(=O)OCC)c1ccc(-c2nc(N)sc2CC(C)C)o1	Activity (Rattus norvegicus [2]): 51%; Time (Rattus norvegicus [3]): 2 h
11	CC(C)Cc1sc(N)nc1-c1ccc(P(=O)(OCOC(=O)C(C)(C)C)OCOC(=O)C(C)(C)C)o1	
31	CCCSc1sc(N)nc1-c1ccc(P(=O)(NC(C)(C)C(=O)OCC)NC(C)(C)C(=O)OCC)o1	Activity (Rattus norvegicus [2]): 51%; Time (Rattus norvegicus [3]): 2 h
9	CCCSc1sc(N)nc1-c1ccc(P(=O)(N[C@@H](COC(C)(C)C)C(=O)OC)N[C@@H](COC(C)(C)C)C(=O)OC)o1	
9	CC(C)Cc1sc(N)nc1-c1ccc(P(=O)(NCC(=O)OC(C)(C)C)NCC(=O)OC(C)(C)C)o1	
3	CCOC(=O)[C@H](CC(C)C)NP(=O)(N[C@@H](CC(C)C)C(=O)OCC)c1ccc(-c2nc(N)sc2CC(C)C)o1	
10	CC(C)COC(=O)[C@H](C)NP(=O)(N[C@@H](C)C(=O)OCC(C)C)c1ccc(-c2nc(N)sc2CC(C)C)o1	
18	CC(C)Cc1sc(N)nc1-c1ccc(P(=O)(N[C@@H](C)C(=O)OCC(C)(C)C)N[C@@H](C)C(=O)OCC(C)(C)C)o1	
31	CC(C)Cc1sc(N)nc1-c1ccc(P(=O)(N[C@@H](C)C(=O)OC(C)C)N[C@@H](C)C(=O)OC(C)C)o1	Activity (Rattus norvegicus [2]): 63%; Time (Rattus norvegicus [3]): 2 h
16	CCCOC(=O)[C@H](C)NP(=O)(N[C@@H](C)C(=O)OCCC)c1ccc(-c2nc(N)sc2CC(C)C)o1	
30	CCOC(=O)C(C)(C)NP(=O)(NC(C)(C)C(=O)OCC)c1ccc(-c2nc(N)sc2-c2ccccc2)o1	Activity (Rattus norvegicus [2]): 25%; Time (Rattus norvegicus [3]): 2 h
23	CCOC(=O)[C@H](C)NP(=O)(N[C@@H](C)C(=O)OCC)c1ccc(-c2nc(N)sc2SC)o1	Activity (Rattus norvegicus [2]): 38%; Time (Rattus norvegicus [3]): 2 h
30	CCOC(=O)c1sc(N)nc1-c1ccc(P(=O)(N[C@@H](C)C(=O)OCC)N[C@@H](C)C(=O)OCC)o1	Activity (Rattus norvegicus [2]): 12%; Time (Rattus norvegicus [3]): 3 h
7	CCOC(=O)[C@@H](NP(=O)(N[C@H](C(=O)OCC)C(C)C)c1ccc(-c2nc(N)sc2CC(C)C)o1)C(C)C	
8	CCOC(=O)[C@H](CC)NP(=O)(N[C@@H](CC)C(=O)OCC)c1ccc(-c2nc(N)sc2CC(C)C)o1	
32	CCOC(=O)C(C)(C)NP(=O)(c1ccc(-c2nc(N)sc2CC(C)C)o1)N1CCOCC1 (configuration not stated)	
13	CC(C)Cc1sc(N)nc1-c1ccc(P(=O)(OCOC(=O)OC(C)C)OCOC(=O)OC(C)C)o1	
27	CCOC(=O)C1(NP(=O)(NC2(C(=O)OCC)CCCC2)c2ccc(-c3nc(N)sc3CC(C)C)o2)CCCC1	Activity (Rattus norvegicus [2]): 20%; Time (Rattus norvegicus [3]): 2 h
22	COC(=O)[C@@H](C)NP(=O)(N[C@H](C)C(=O)OC)c1ccc(-c2nc(N)sc2CC(C)C)o1	Activity (Rattus norvegicus [2]): 26%; Time (Rattus norvegicus [3]): 2 h
45	CCOC(=O)C(C)(C)NP(=O)(NC(C)(C)C(=O)OCC)c1ccc(-c2nc(N)sc2SC)o1	Activity (Rattus norvegicus [2]): 80%; Time (Rattus norvegicus [3]): 2 h
4	CCCSc1sc(N)nc1-c1ccc(P(=O)(N[C@@H](C)C(=O)OC(C)(C)C)N[C@@H](C)C(=O)OC(C)(C)C)o1	
47	CCOC(=O)C(C)(C)NP(=O)(NC(C)(C)C(=O)OCC)c1ccc(-c2nc(N)sc2CC(C)C)o1	Activity (Rattus norvegicus [2]): 45%; Time (Rattus norvegicus [3]): 2 h
37	CCOC(=O)C(C)(C)NP(=O)(c1ccc(-c2nc(N)sc2CC(C)C)o1)N1CCCC1 (configuration not stated)	
28	CCOC(=O)C(C)NP(=O)(NC(C)C(=O)OCC)c1ccc(-c2nc(N)sc2CC(C)C)o1 (mixture of isomers)	Activity (Rattus norvegicus [2]): 52%; Time (Rattus norvegicus [3]): 2 h
2	CC(C)Cc1sc(N)nc1-c1ccc(P(=O)(O)O)o1 [MB-05032]	Activity (Rattus norvegicus [5]): >50%
